Reference: patent US20110263520A1, “COMPOSITION FOR USE IN CONTROLLING HARMFUL ORGANISMS THAT CONTAINS 16-KETO ASPERGILLIMIDE” (priority 2008, published 2011)
Where two headings read alike, the source gives them in different places.

What was measured:
[1] = test system: Haemaphysalis longicornis; assay: Tickcidal effect against Haemaphysalis longicornis, dry film in glass vial (Test Example 5); assay type: in vivo; conditions: for pest or weed control at 1.5 ppm: other agent 1.5 ppm alone (16-keto aspergillimide 0 ppm); for pest or weed control at 3 ppm: other agent 3 ppm alone (16-keto aspergillimide 0 ppm); for pest or weed control at 30 ppm: other agent 30 ppm alone (16-keto aspergillimide 0 ppm); for Death rate (%): Table 10; for Theoretical value (%) by Colby's formula: Table 12
Protocol: Acetone solutions (30 μl) adjusted to predetermined concentrations were placed in 4 mL-volume glass vials. The vials were placed on a shaker, and a dry film of the compound was prepared on the inner wall of the vials. The vials were dried for 24 hr or more. Larvae (10 or more heads) were released in the vials, and the vials were lidded. The vials were then left to stand in a humidistat chamber (25° C., humidity 85%, fully darkened conditions). […] The test was duplicated.
(§1) Colby's formula: Theoretical value (%)=100−(A×B)/100

Laodelphax striatellus [2] = assay: Root dipping application test, Laodelphax striatellus (Reference Test Example 1); assay type: in vivo; conditions: 0.5 μg/seedling, wheat seedlings, 3 days after release
Text: A test solution adjusted to a predetermined concentration (10% aqueous acetone solution) was applied to the root of wheat seedlings in water culture. […] The test was duplicated.
As is apparent from Table 15, the systemic insecticidal activity of 16-keto aspergillimide was much higher than that of a control compound, Asperparaline A.
The 16-keto aspergillimide and Asperparaline A used in this test were obtained according to methods described in The Journal of Antibiotics, 1997, 50(10), 840-846. This is true of the following test examples.

Laodelphax striatellus [3] = assay: Foliage application test for Laodelphax striatellus (Test Example 2); assay type: in vivo; conditions: other insecticide 0.313 ppm alone (16-keto aspergillimide 0 ppm); for Death rate (%): foliage application, 3 days after release
Text: as §1

Laodelphax striatellus [4] = assay: Laodelphax striatellus soil drenching application test (Test Example 1); conditions: for Death rate (%): soil drenching, 3 days after release
Protocol: Test solutions adjusted to a predetermined concentration (10% aqueous acetone solution) were applied to rice seedling in a pot by soil drenching. The rice seedling was allowed to stand for 3 days. Second instar larvae were released and was then allowed to stand in a humidistat chamber (light period 16 hr−dark period 8 hr) (25° C.).
Death rate (%)={number of dead larvae/(number of survived larvae+number of dead larvae)}×100
wherein A: 100−(death rate when application was performed only with 16-keto aspergillimide); and

[5] = test system: Haemaphysalis longicornis; assay: Tickicidal effect against Haemaphysalis longicornis on body surface of mouse (Test Example 6); assay type: in vivo; conditions: other agent 6 μg/2 cm^2 alone (16-keto aspergillimide 0 μg/2 cm^2)
Protocol: Skin hair on the back of mouse (ICR, male, 5 week olds) was clipped in a diameter of about 2 cm, and a 15-mL polystyrene conical tube cut to have a height of about 1.5 cm was bonded to the body surface of the mouse with an instant adhesive. Test solutions (20 μl) adjusted with ethanol were dropped on the body surface of mice within the bonded tube. After thorough drying, larvae (10 or more heads) were released within the tube, and the tube was lidded. […] The test was hexaplicated.
as §1

[6] = test system: Nilaparvata lugens which is low-sensitive to imidacloprid; assay: Foliage application test for Nilaparvata lugens, imidacloprid low-sensitive strain (Test Example 4); assay type: in vivo; conditions: low-sensitive strain, 6 days after release
Protocol: (§2) Test solutions adjusted to a predetermined concentration (50% aqueous acetone solution) applied to rice seedlings in a pot for foliage application. […] The test was duplicated.
(§3) For comparison, a test was carried out in the same manner as described above, except that a Nilaparvata lugens strain which is highly sensitive to imidacloprid was used.
(§4) Regarding the origin of the test insect pests, Nilaparvata lugens which is low-sensitive to imidacloprid was an insect which had been collected outdoors in Kumamoto Prefecture, 2007, and Nilaparvata lugens which is sensitive to imidacloprid was an insect which had been collected in Kagoshima Prefecture and was then subjected to indoor successive raising.

[7] = test system: Nilaparvata lugens which is sensitive to imidacloprid; assay: Foliage application test for Nilaparvata lugens, imidacloprid-sensitive strain (Test Example 4, comparison); assay type: in vivo; conditions: 6 days after release
Protocol: as §2, §3, §4

[8] = Haemaphysalis longicornis, 48 h, read-out: Death rate (%), Table 9, 2 days after release
[9] = other insecticide 0.002 mg/seedling alone (16-keto aspergillimide 0 mg/seedling)
[10] = other insecticide 0.005 mg/seedling alone (16-keto aspergillimide 0 mg/seedling)
[11] = treatment concentration 1.25 ppm

Compound C/C(=N\C#N)N(C)Cc1ccc(Cl)nc1 [Acetamiprid, acetamiprid] has a pest or weed control at 1.5 ppm [1, 8] of 24% and a pest or weed control at 3 ppm [1, 8] of 55%.
For C[C@H]1CCN2C[C@@]34C[C@]5(CC(=O)N(C)C5=O)C(C)(C)[C@@H]3C[C@]12C(=O)N4C [Asperparaline A, reference compound], the “Death rate (%) for each amount of test chemical compound” value (Laodelphax striatellus [2]) was 0%.
In the case of CN/C(=N\[N+](=O)[O-])NCc1cnc(Cl)s1 [Clothianidin, clothianidin], the “Theoretical value (%) calculated by the Colby's formula” value (“Theoretical value (%) calculated” for short) (Laodelphax striatellus [3]) was 4%, the “Death rate (%)” value (Laodelphax striatellus [3]) was 4% and the pest or weed control at 5 ppm ([1]; Haemaphysalis longicornis, 48 h, read-out: Death rate (%), Table 10, other agent 5 ppm alone (16-keto aspergillimide 0 ppm), 2 days after release) was 35%. It also gave a pest or weed control at 10 ppm ([1]; Haemaphysalis longicornis, 48 h, read-out: Death rate (%), Table 10, other agent 10 ppm alone (16-keto aspergillimide 0 ppm), 2 days after release) of 62%.
For CN/C(=N/CC1CCOC1)N[N+](=O)[O-] (centres unmarked) [Dinotefuran, dinotefuran], the “Theoretical value (%) calculated” value (Laodelphax striatellus [4]) was 4%, the “Death rate (%)” value (Laodelphax striatellus [4]; [9]) was 4% and the pest or weed control at 30 ppm [1, 8] was 12%. The pest or weed control at 50 ppm ([1]; Haemaphysalis longicornis, 48 h, read-out: Death rate (%), Table 9, other agent 50 ppm alone (16-keto aspergillimide 0 ppm), 2 days after release) was 14%.
With N#Cc1nn(-c2c(Cl)cc(C(F)(F)F)cc2Cl)c(N)c1[S+]([O-])C(F)(F)F (centres unmarked) [Fipronil, fipronil] the “Theoretical value (%) calculated” value (Laodelphax striatellus [3]) was 21%, the “Death rate (%)” value (Laodelphax striatellus [3]) was 21% and the “Theoretical value (%) calculated” value (Laodelphax striatellus [4]) was 5%. The “Death rate (%)” value (Laodelphax striatellus [4]; [9]) was 5%.
For O=[N+]([O-])NC1=NCCN1Cc1ccc(Cl)nc1 [Imidacloprid, imidacloprid, reference compound], the “Theoretical value (%) calculated” value (Laodelphax striatellus [3]) was 5%, the “Death rate (%)” value (Laodelphax striatellus [3]) was 5% and the “Theoretical value (%) by Colby's formula” value [5] was 22%. The “Death rate (%)” value ([5]; mouse body surface, 3 days after release) was 22%, the “Theoretical value (%) calculated” value (Laodelphax striatellus [4]; [10]) was 5% and the “Death rate (%)” value (Laodelphax striatellus [4]; [10]) was 5%. For the same compound, the pest or weed control at 1.5 ppm [1, 8] was 26%, the pest or weed control at 3 ppm [1, 8] was 33% and the “Death rate (%)” value [6, 11] was 15%. For the same compound, the “Death rate (%)” value ([6]; treatment concentration 5 ppm) was 55%, the “Death rate (%)” value ([6]; treatment concentration 20 ppm) was 85% and the “Death rate (%)” value [7, 11] was 100%. For the same compound, the “Death rate (%)” value ([7]; treatment concentration 5 ppm) was 100% and the “Death rate (%)” value ([7]; treatment concentration 20 ppm) was 100%.
CCN(Cc1ccc(Cl)nc1)/C(=C/[N+](=O)[O-])NC [Nitenpyram, nitenpyram] gave a pest or weed control at 40 ppm ([1]; Haemaphysalis longicornis, 48 h, read-out: Death rate (%), Table 9, other agent 40 ppm alone (16-keto aspergillimide 0 ppm), 2 days after release) of 12%.
CC(c1ccc(C(F)(F)F)nc1)S(C)(=O)=NC#N (centres unmarked) [Sulfoxaflor, sulfoxaflor] was tested, and the pest or weed control at 75 ppm ([1]; Haemaphysalis longicornis, 48 h, read-out: Death rate (%), Table 10, other agent 75 ppm alone (16-keto aspergillimide 0 ppm), 2 days after release) was 48% and the pest or weed control at 150 ppm ([1]; Haemaphysalis longicornis, 48 h, read-out: Death rate (%), Table 10, other agent 150 ppm alone (16-keto aspergillimide 0 ppm), 2 days after release) was 60%.
Work on CN1COCN(Cc2cnc(Cl)s2)/C1=N\[N+](=O)[O-] [Thiamethoxam, thiamethoxam] yielded a pest or weed control at 30 ppm ([1]; Haemaphysalis longicornis, 48 h, read-out: Death rate (%), Table 10, 2 days after release) of 21% and a pest or weed control at 60 ppm ([1]; Haemaphysalis longicornis, 48 h, read-out: Death rate (%), Table 10, other agent 60 ppm alone (16-keto aspergillimide 0 ppm), 2 days after release) of 26%.
With ivermectin the “Death rate (%)” value ([1]; other agent 200 ppm alone (16-keto aspergillimide 0 ppm), 2 days after release) was 0%, the “Death rate (%)” value ([1]; other agent 400 ppm alone (16-keto aspergillimide 0 ppm), 2 days after release) was 0% and the “Theoretical value (%) by Colby's formula” value ([1]; other agent 200 ppm alone (16-keto aspergillimide 0 ppm)) was 0%. The “Theoretical value (%) by Colby's formula” value ([1]; other agent 400 ppm alone (16-keto aspergillimide 0 ppm)) was 0%.
